The conditions of data set [1]: cited from earlier work.
Data set [2] concerns DU-145. In words: Cell viability assay (CCK-8), prostate cancer cell line DU-145. In kind it is cell-based. As to the method:
(§1) GnRH derivatives are clinically applied to the therapy of diseases including breast cancer, prostate cancer, endometriosis, central precocious puberty, and the like. […] An assay for cell viability was performed using the Cell Counting Kit-8 (CCK-8, manufactured by DOJINDO). Each of the cell lines was separated from the T75 flask by trypsinization and transferred to 96-well plates at a density of 1×10^4 cells/mL for DU-145 and at a density of 1×10^5 cells/mL for PC3 and LNCaP, followed by incubation for one hour for attachment.
(§2) Subsequently, each cell line was treated with 100 μM and 200 μM of each of the derivatives of Comparative Examples 1 to 3 and Examples 9 to 16 and the control. In brief, 1% methyl β-cyclodextrin was used as a negative control for cell viability while 0.1% sodium dodecyl sulfate (SDS) served as a positive control. After 48 hours of incubation, the existing culture medium was removed, and 100 μL of fresh culture medium and 10 μL of CCK-8 solution were applied to each cell line. Again, after 48 hours of incubation, the medium solution was replaced by 100 μL of fresh culture medium and 10 μL of CCK-8 solution. The cells were incubated for 4 hours, and then the absorbance was measured at 450 nm to assess cell viability.

The subject of data set [3] is PC3. In words: Cell viability assay (CCK-8), prostate cancer cell line PC3. In kind it is cell-based. Here is the method:
as §1, §2

In data set [4] the test system is LNCaP. The data set is described as follows: Cell viability assay (CCK-8), prostate cancer cell line LNCaP. In kind it is cell-based. As to the method: as §1, §2
Data set [5] is described as follows: Blood concentration over time and pharmacokinetic analysis after single subcutaneous administration (LC/MSMS). In kind it is in vivo, female SD rats. The settings on record: rats, 12.5 mg/kg s.c. once. Here is the method:
The present inventor carried out animal experiments (female SD rats, nine weeks old) in order to examine the increased in vivo half-lives of the prepared fatty acid-conjugated GnRH derivatives. […] DMSO (dimethyl sulfoxide) was used as a solvent as needed. Before administration and at 0.5, 1, 2, and 6 hours and on days 1, 3, 7, 10, 14, 21, and 28 after administration, blood samples were taken from the tail vein of the rats and measured for the blood concentrations of Leuprolide and the derivatives of the Examples, using LC/MSMS. If the concentration reached about 4 ng/mL at a specific time point, no measurements were further made for the next time point.
In the following table, the numerical unit is ng/mL.
The measurement results are graphically depicted in FIGS. 10 to 12. Based on the results, pharmacokinetic analysis was carried out by calculating the half-life (t1/2), clearance rate (CL), volume of distribution (Vd), time to reach the maximum concentration following drug administration (Tmax), maximum concentration following drug administration (Cmax), and systemic exposure to drug (AUCt). The analysis results are as follows.

The subject of data set [6] is ovary of female rats. The data set is described as follows: Assay for ovarian morphological change (H&E stained ovaries). The data set is classed as in vivo. The conditions noted are these: single subcutaneous dose 12.5 mg/kg (as cyclodextrin compositions), day 28, versus non-treated and methyl-β-cyclodextrin groups. As to the method: Experiments were carried out to examine whether or not the fatty acid-conjugated GnRH derivatives maintain the functional characteristics and incur a morphological change in the ovary.
The pharmaceutical compositions of Examples 9, 10, 13, 14, 15, and 16 were each subcutaneously injected at a single dose of 12.5 mg/kg once at the back of the neck to female rats 9 weeks old. Rats to which no drugs were administered were used as a non-treated control while an aqueous solution of 3 mg of methyl-β-cyclodextrin was injected to a negative control. Each group consisted of 3 rats.
On day 28 after injection, the rats were subjected to an autopsy to excise the ovaries which were then stained with hematoxylin-eosin (H&E stain).
Briefly, ovaries were stained with H&E and observed as follows.
11. After finishing the above procedures, the specimen slides were scanned using a ScanScope® AT slider scanner (Aperio) and the images thus stored were analyzed using the ImageScope program (Aperio). The scanned images are depicted in FIGS. 6 to 9.
It is known that when administered to rats, a GnRH agonist reduces the formation of secondary follicles and Graafian follicles (see: Mohammadbeigi et al., Short-term Administration of Gonadotropin-releasing Hormone Agonist (Buserelin) Induces Apoptosis in Rat Ovarian Developmental Follicles, July 2016). In this experiment, secondary and Graafian follicles on ovary images in each treatment group were indicted by arrows to examine whether the number of the follicles is reduced or not.

For data set [7] the following is noted: emulsion, same dose; cited from earlier work.
The mark [8] stands for this setting: treatment conc. 200 μM, listed as Comparative Example 3.

Square brackets hold non-standard residues; d marks the D form. Peptide text beside a SMILES is read from it. * marks the point of attachment. Palmitoyl = CCCCCCCCCCCCCCCC(=O)*

With `CC(C)C[C@H](NC(=O)CNC(=O)[C@H](Cc1ccc(O)cc1)NC(=O)[C@H](CO)NC(=O)[C@H](Cc1c[nH]c2ccccc12)NC(=O)[C@H](Cc1cnc[nH]1)NC(=O)[C@@H]1CCC(=O)N1)C(=O)N[C@@H](CCCNC(=N)N)C(=O)N1CCC[C@H]1C(=O)NCC(N)=O` [C. Example 1], the “in vivo half-life in circulating blood” value in data set [1] was 2 to 4 min.
`CC(C)C[C@H](NC(=O)[C@@H](Cc1c[nH]c2ccccc12)NC(=O)[C@H](Cc1ccc(O)cc1)NC(=O)[C@H](CO)NC(=O)[C@H](Cc1c[nH]c2ccccc12)NC(=O)[C@H](Cc1c[nH]cn1)NC(=O)[C@@H]1CCC(=O)N1)C(=O)N[C@@H](CCCNC(=N)N)C(=O)N1CCC[C@H]1C(=O)NCC(N)=O` [C. Example 3, pyroGlu-His-Trp-Ser-Tyr-D-Trp-Leu-Arg-Pro-Gly-NH2]: the “Viability of DU-145 relative to negative control 1% methyl-β-cyclodextrin (%)” value is given as 100.92 ± 2.98% in data set [2] (treatment conc. 100 μM), 94.27 ± 3.47% in data set [2] (treatment conc. 200 μM) and “about 94%” in data set [2] (setting [8]). Also, the “Viability of PC3 relative to negative control 1% methyl-ß-cyclodextrin (%)” value in data set [3] (treatment conc. 100 μM) is 99.67 ± 3.17%; in data set [3] (treatment conc. 200 μM), 95.44 ± 4.03%; in data set [3] (setting [8]), “about 95%”. Besides, the “Viability of LNCaP relative to negative control 1% methyl-β-cyclodextrin (%)” value in data set [4] (treatment conc. 100 μM) was 92.89 ± 4.33%; in data set [4] (treatment conc. 200 μM), 90.22 ± 4.03%; in data set [4] (setting [8]) it was “about 90%”.
As for `CCCCCCCCCCCCCCCC(=O)N[C@@H](CCC(N)=O)C(=O)N[C@@H](Cc1c[nH]cn1)C(=O)N[C@@H](Cc1c[nH]c2ccccc12)C(=O)N[C@@H](CO)C(=O)N[C@@H](Cc1ccc(O)cc1)C(=O)N[C@H](CC(C)C)C(=O)N[C@@H](CC(C)C)C(=O)N[C@@H](CCCNC(=N)N)C(=O)N1CCC[C@H]1C(=O)NCC` [Example 4, Palmitic acid-Gln-His-Trp-Ser-Tyr-D-Leu-Leu-Arg-Pro-NHEt] (Palmitoyl-QHWSY[dL]LRP-NHEt), the AUC(0-t) in data set [5] (female, SD, rat, blood, sc, 12.5 mg/kg, read-out: AUCt (systemic exposure to drug) (converted)) is 5190 ng·h/mL. In addition, the Cmax in data set [5] (female, SD, rat, blood, sc, 12.5 mg/kg, read-out: Cmax (maximum concentration)) is 52.2 ng/mL. Further, in data set [5] (female, SD, rat, blood, sc, 12.5 mg/kg, read-out: t1/2 (half-life) (converted)), the half-life was 4.8 days. For the same molecule, in data set [5] (female, SD, rat, blood, sc, read-out: Tmax (time to reach the maximum concentration) (converted)), the Tmax was 6 h. Moreover, in data set [5] (12.5 mg/kg), the “CL (clearance rate)” value is recorded as 0.051 (mg/kg)/(ng/mL)/Day and the “Vd (volume of distribution)” value is on record as 0.351 (mg/kg)/(ng/mL).
`CCCCCCCCCCCCCCCC(=O)N[C@@H](CCC(N)=O)C(=O)N[C@@H](Cc1c[nH]cn1)C(=O)N[C@@H](Cc1c[nH]c2ccccc12)C(=O)N[C@@H](CO)C(=O)N[C@@H](Cc1ccc(O)cc1)C(=O)N[C@H](CC(C)C)C(=O)N[C@@H](CC(C)C)C(=O)N[C@@H](CCCNC(=N)N)C(=O)N1CCC[C@H]1C(=O)NCC` [Example 6, Palmitic acid-Gln-His-Trp-Ser-Tyr-D-Leu-Leu-Arg-Pro-NHEt] (Palmitoyl-QHWSY[dL]LRP-NHEt): in data set [5], the “Tmax (time to reach the maximum concentration)” value turned out to be 0.25 days. In addition, in data set [5] (12.5 mg/kg), the “CL (clearance rate)” value is given as 0.075 (mg/kg)/(ng/mL)/Day, the “Cmax (maximum concentration)” value was 45.7 ng/mL, the “Vd (volume of distribution)” value was 0.436 (mg/kg)/(ng/mL) and the “t1/2 (half-life)” value is 4.03 days.
`CCCCCCCCCCCCOS(=O)(=O)[O-].[Na+]` [Positive Control (0.1% SDS), sodium dodecyl sulfate]: the “Viability of DU-145 relative to negative control 1% methyl-β-cyclodextrin (%)” value in data set [2] (positive control, 0.1% SDS) is listed as 18.18 ± 2.32%. Moreover, the “Viability of PC3 relative to negative control 1% methyl-ß-cyclodextrin (%)” value in data set [3] (positive control, 0.1% SDS) is 15.11 ± 1.72%. Moreover, in data set [4] (positive control, 0.1% SDS), the “Viability of LNCaP relative to negative control 1% methyl-β-cyclodextrin (%)” value is given as 20.45 ± 1.58%.
Turning to “Arachidic acid-Gln-His-Trp-Ser-Tyr-D-Leu-Leu-Arg-Pro-NHEt ({Arachidic acid}-QHWSY[dL]LRP-NHEt; also: acetate salt) [Example 8]”, in data set [6], the “numbers of secondary or Graafian follicles in the ovary” value (shortened to “numbers”) is given as “decreased”.
Regarding “Arachidic acid-Glu-His-Trp-Ser-Tyr-D-Leu-Leu-Arg-Pro-NHEt ({Arachidic acid}-EHWSY[dL]LRP-NHEt; also: acetate salt) [Example 7]”, in data set [6], the “numbers” value is “decreased”.
As to “Lauric acid-Gln-His-Trp-Ser-Tyr-D-Leu-Leu-Arg-Pro-NHEt ({Lauric acid}-QHWSY[dL]LRP-NHEt; also: acetate salt) [Example 2]”, in data set [6], the “numbers” value was “decreased”.
As for “Lauric acid-Glu-His-Trp-Ser-Tyr-D-Leu-Leu-Arg-Pro-NHEt ({Lauric acid}-EHWSY[dL]LRP-NHEt; also: acetate salt) [Example 1]”, the “numbers” value in data set [6] is “decreased”.
Consider “Palmitic acid-Glu-His-Trp-Ser-Tyr-D-Leu-Leu-Arg-Pro-NHEt (Palmitoyl-EHWSY[dL]LRP-NHEt; also: acetate salt) [Example 5]”, for which, in data set [6], the “numbers” value is given as “decreased”.
As to dexamethasone palmitate, the “anti-inflammatory effect relative to dexamethasone alone” value in data set [7] is given as 5.6 fold.

The record behind these values is patent US11975048B2, “Long-acting fatty acid-conjugated GnRH derivatives and pharmaceutical compositions containing same” (NOVEL PHARMA INC., priority 2019, dated 2024).
